From paper PMC12459020, “Chemical Probes that Target a Dissociative LuxR-Type Quorum Sensing Receptor in Gram-Negative Bacteria” (ACS Chemical Biology, 2025)
Read-outs that look alike come from different tables or passages of the source.

Key:
EsaR [1] = biological target: T1, EsaR (Pantoea stewartii subsp. stewartii, UniProt P54293); test: cell-based; settings: for activation at 100 µM / inhibition at 100 µM: 3.5 h; for activation at 100 µM: read-out: EsaR-activated (pesaS) [%] agonism; for inhibition at 100 µM: read-out: EsaR-activated (pesaS) antagonism
T1 construct: expressed in transfected cells; host or cells: E. coli JLD271 (K12 ΔsdiA), arabinose-induced pJN105-esaR
Source text: (§1) EsaR transcriptional activation and repression were examined using E. coli and P. stewartii reporters (strains and plasmids listed in Table S1; see Methods section for assay details). […] We constructed reporters in E. coli based on previously reported EsaR reporters (Table S1). Each strain contained an EsaR expression plasmid (pJN105-esaR) and a reporter plasmid with either an EsaR-activated promoter (pesaS) or an EsaR-repressed promoter (pesaR) upstream of luxABCDE or GFP.
(§2) Gibson assembly was used to create all constructs. Plasmid pJN105-esaR was created by amplifying esaR from pAC-esaR and inserting it into pJN105. pesaSlux was created by inserting pesaS, amplified from pPesaR-AC:gfp, into the pCS-pesaRlux backbone. The pesaR promoter was amplified from pCS-pesaRlux and inserted into the pPesaR-AC:gfp backbone to create pesaR:GFP. P. stewartii reporter strains were created by transforming pesaR:GFP or pPesaR-AC:gfp into ESN51 by conjugation using E. coli S17 λpir as the donor strain. See SI for details of E. coli ExpR2 reporter construction.
(§3) Overnight cultures were diluted 1:10 in LB medium with appropriate antibiotics and grown at 37 °C (200 rpm) to an OD600 of 0.22–0.27 before induction with 4 mg mL^–1 arabinose. OD600 was measured by placing 200 μL of culture into a 96-well plate and reading optical density using the BioTek Synergy 2 plate reader. Assays were performed in technical triplicate in clear-bottom, white and clear-bottom, black 96-well microtiter plates (Corning Costar 3903 and 3904) for luminescence and fluorescence reporters, respectively. Compounds were dissolved in DMSO, and 2 μL of this stock, or DMSO as a negative control, was added to each well prior to adding 198 μL of induced culture. Plates were incubated at 37 °C (200 rpm) for 3.5 h. Each well was mixed by pipetting before reading OD600 and either luminescence or fluorescence. Single-point screens were performed with one or two biological replicates, and all dose–response curves were performed in biological triplicate. EC50 values were calculated based on a nonlinear regression of log(concentration) vs response (three parameters) using GraphPad Prism 9 software.

EsaR [2] = biological target: T1, EsaR; test: cell-based; settings: for activation at 100 µM / inhibition at 100 µM: 3.5 h; for activation at 100 µM: read-out: EsaR-repressed (pesaR) [%] agonism; for inhibition at 100 µM: read-out: EsaR-repressed (pesaR) antagonism
Source text: as §1, §2, §3

ExpR2 = settings: cited from earlier work; for ExpR2 [%] (agonism, percent activation): compounds at 200 μM, cellulase activity in P. versatile AC5099, ref Palmer et al., 2011 (main ref 44, SI ref 6); for ExpR2 antagonism (percent inhibition): 5 µM compound against 5 µM OHHL, negative values indicate potential activators, ref 6 (SI; Palmer et al., 2011)
LuxR = settings: cited from earlier work; for LuxR [%] (agonism, activation): compounds at 200 μM, luminescence in V. fischeri ES114 (ΔluxI), ref Palmer et al., 2011 (main ref 44, SI ref 6); for LuxR antagonism: 5 µM compound against 5 µM OHHL, negative values indicate potential activators, ref 6 (SI; Palmer et al., 2011)
ExpR1 = settings: cited from earlier work; for ExpR1 [%] (agonism, activation): compounds at 200 μM, cellulase activity in P. versatile AC5117, ref Palmer et al., 2011 (main ref 44, SI ref 6); for ExpR1 antagonism: 5 µM compound against 5 µM OHHL, negative values indicate potential activators, ref 6 (SI; Palmer et al., 2011)

T1 sequence (P54293 whole entry): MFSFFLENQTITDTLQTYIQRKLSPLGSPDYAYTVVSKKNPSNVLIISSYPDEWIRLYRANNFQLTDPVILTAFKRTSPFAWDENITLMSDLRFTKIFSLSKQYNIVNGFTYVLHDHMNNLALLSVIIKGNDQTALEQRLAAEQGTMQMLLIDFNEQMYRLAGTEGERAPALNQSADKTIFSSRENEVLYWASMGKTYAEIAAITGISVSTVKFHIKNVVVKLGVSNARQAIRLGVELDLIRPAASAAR

SMILES	EC50 (EsaR [1]) [µM]	EC50 (EsaR [2]) [µM]	fold less potent than hexanoyl HL in EsaR (EsaR [1]; E. coli EsaR reporter EC50 values)	ExpR2 [%] (agonism, percent activation) (ExpR2)	activation at 100 µM (EsaR [1]) [%]	LuxR [%] (agonism, activation) (LuxR)	activation at 100 µM (EsaR [2]) [%]	ExpR1 [%] (agonism, activation) (ExpR1)	ExpR2 antagonism (percent inhibition) (ExpR2) [%]	inhibition at 100 µM (EsaR [1]) [%]	LuxR antagonism (LuxR) [%]	inhibition at 100 µM (EsaR [2]) [%]	ExpR1 antagonism (ExpR1) [%]	EsaR agonism, in words (EsaR [1]; E. coli EsaR reporters, primary screen at 100 μM)
CCCS(=O)(=O)N[C@H]1CCOC1=O [A8]	≥ 66	≥ 71	–	–	–	–	–	–	–	–	–	–	–	–
CCCCCS(=O)(=O)N[C@H]1CCOC1=O [A10]	17	17	about 3 fold	–	–	–	–	–	–	–	–	–	–	–
O=C(N[C@H]1CCOC1=O)c1ccc(Br)cc1 [B6]	–	–	–	7	-4	2	11	2	–	–	–	–	–	–
O=C(N[C@H]1CCOC1=O)c1ccccc1 [B8]	–	–	–	6	2	2	6	0	23	-4	34	-4	37	–
O=C(CCc1ccccc1)N[C@H]1CCOC1=O [B9]	–	–	–	12	23	3	6	4	37	-24	44	-10	48	–
O=C(/C=C/c1ccccc1)N[C@H]1CCOC1=O [B10]	–	–	–	18	12	3	-2	4	49	-6	48	17	57	–
CCCC(=O)N[C@H]1CCOC1=O [BHL, reference compound]	–	–	–	17	26	0	6	0	19	-22	43	-46	48	–
O=C(Cc1ccccc1)N[C@H]1CCOC1=O [C1]	–	–	–	21	17	3	7	6	11	-13	14	-61	4	–
O=C(Cc1ccc(F)cc1)N[C@H]1CCOC1=O [C2]	–	–	–	14	4	2	-2	4	23	-14	59	-50	64	–
O=C(Cc1ccccc1F)N[C@H]1CCOC1=O [C4]	–	–	–	24	-1	2	-3	8	27	-9	49	15	44	–
O=C(Cc1ccc(Cl)cc1)N[C@H]1CCOC1=O [C5, 4-Cl PHL]	–	–	–	29	-1	3	3	5	48	-3	75	2	78	nearly inactive
O=C(Cc1cccc(Cl)c1)N[C@H]1CCOC1=O [C6]	≥ 125	≥ 216	–	81	49	61	29	49	54	-40	65	-58	63	–
O=C(Cc1ccccc1Cl)N[C@H]1CCOC1=O [C7]	–	–	–	28	10	6	5	9	41	1	53	-26	57	–
O=C(Cc1cccc(Br)c1)N[C@H]1CCOC1=O [C8]	–	–	–	97	55	70	30	63	59	-43	68	-65	73	–
O=C(Cc1ccccc1Br)N[C@H]1CCOC1=O [C9]	–	–	–	32	-2	12	0.4	9	32	-8	47	-14	49	–
